Results: patent US20240325398A1, “COMBINATION THERAPIES” (Infinity Pharmaceuticals, Inc., priority 2014, published 2024)

Legend:
[1] = tested on: DoHH2 tumor; assay type: in vivo
Protocol: In particular, tolerability of the combination treatment was assessed in DoHH2 tumor bearing CB17.SCID female mice (a follicular lymphoma subcutaneous model). […] Plasma samples were collected on day 7 (trough, 1, 2, 4, and 6 h post dose) and on day 14 (2 h post final dose).

[2] = tested on: Compound 1-resistant SU-DHL-4 clones; experiment: CTG (Cell Titer Glo) IC50, Compound 1-resistant clones; assay type: cell-based; settings: Compound 1-resistant clones versus control cells, FIG. 10
Protocol: (§1) The DMSO stock for each compound was diluted to 5 mM or 1 mM with DMSO. A 1:1000 dilution was performed into the plated cells (10 uL) for a final of 1 uM or 5 uM (final DMSO […]). Cells were counted 2 times per week and cell densities were adjusted back to 2.5×10^5 c/mL as needed. Media/Compound was replenished as needed and Media/Compound was replaced 1× per week. Compound treatment lasted for 28 days. Compound was washed out for 1 week and cells were subsequently used in assays to determine resistance after 4 weeks of treatment.
(§2) The cell line pool was treated with compound for an additional 28 days prior to subcloning. Altogether, the cell line pool was under selective pressure for a total of 8 weeks.
(§3) Cell lines were subcloned at 3, 1, and 0.3 cells per well (cpw). 1:10 of conditioned medium (CM) was included in medium in addition to corresponding DMSO control or compound. During subcloning optimization experiments, the SU-DHL-4 cell line could only be subcloned in the presence of 1:10 conditioned medium. […]
(§4) All cell lines subcloned grew out. […] Once expanded in a 24 well plate, the 12 clones per cell line were evaluated for viability by flow using the Dead_Live kit (Invitrogen #L23101).
Clones for parent, DMSO and Compound 1-R cell lines were selected based on their P1 vs P2 distribution determined by FSCH vs SSCH scatter plot. […]

[3] = tested on: SU-DHL-6-epst; experiment: Combination study of Compound 1 or CAL-101 and a second therapeutic agent (Synergy Score, CI50); assay type: cell-based
[4] = tested on: ibrutinib-resistant SU-DHL-4 clones; experiment: CTG (Cell Titer Glo) IC50, ibrutinib-resistant clones; assay type: cell-based; settings: ibrutinib clones 2B.3, 5C.3, 10B.3, 11D.3, 11G.3
Protocol: as §1, §2
as §3, with “medium. Conditioned medium (CM) was collected 4 days after splitting the parent cell line and when cells were approximately 90% confluent. Cells were spun down and the supernatant (CM) was collected down.” for “medium.”
as §4

[5] = tested on: NCI-H929; experiment: Combination study, ATPLite 72 h, dose matrix (Synergy Score, CI50); settings: combination with Compound 1
[6] = tested on: HH; experiment: as above; assay type: cell-based; settings: combination with Compound 1
Protocol: The method is described as follows.
Additive effect is CI=1.0. […] Antagonistic effect is CI>1.0.
The Synergy Score is calculated as: […]

[7] = tested on: RPMI-8226; experiment: as above; settings: combination with Compound 1
Protocol: (§5) Cells are thawed from a liquid nitrogen preserved state. Once cells have been expanded and divide at their expected doubling times, screening begins. Cells are seeded in growth media in either black 1536-well or 384-well tissue culture treated plates. Cells are then equilibrated in assay plates via centrifugation and placed in incubators attached to the Dosing Modules at 37° C. for 24 hours before treatment. […] These Tzero (To) plates are read using ultra-sensitive luminescence on Envision plate readers (Perkin Elmer). Treated assay plates are incubated with compound for 72 hours. After 72 hours, plates are developed for endpoint analysis using ATPLite. All data points are collected via automated processes, quality controlled and analyzed using Zalicus software.
(§6) where T is treated cell count and V is untreated (vehicle) cell count (at 72 hours). I ranges from 0% (when T=V) to 100% (when T=0). […] The measure of effect in the experiment can be the inhibition of cellular response relative to the untreated level (vehicle alone). […] The inhibition ranges from 0% at the untreated level to 100% when T=0. Inhibition levels are negative for agents that actually increase levels. Other effect measures, such as an activity ratio r=T/V may be more appropriate for some assays. When activity ratios (e.g, fold increase over stimulated control) are being used, the effect can be measured using an induction 1=ln(T/V). With this definition, all effect expressions are the same as for inhibition.
(§7) Growth Inhibition (GI) is used as a measure of cell viability. […] A GI reading of 100% represents complete growth inhibition—T72 compound-treated and T0 vehicle signals are matched. […] A GI reading of 200% represents complete death of all cells in the culture well. Compounds reaching an activity plateau of GI 200% are considered cytotoxic. GI is calculated by applying the following test and equation:
(§8) Combination analysis data were collected in a 6×6 dose matrix. Synergy is calculated by comparing a combination's response to those of its single compound, against the drug-with-itself dose-additive reference model. Deviations from dose additivity may be assessed visually on an isobologram or numerically with a Combination Index (CI). […] Additive effect is CI=1.0. […] Antagonistic effect is CI>1.0.
(§9) To measure combination effects in excess of Loewe additivity, a scalar measure to characterize the strength of synergistic interaction termed the Synergy Score is devised. The Synergy Score is calculated as:
(§10) The fractional inhibition for each component agent and combination point in the matrix is calculated relative to the median of all vehicle-treated control wells. The Synergy Score equation integrates the experimentally-observed activity volume at each point in the matrix in excess of a model surface numerically derived from the activity of the component agents using the Loewe model for additivity. Additional terms in the Synergy Score equation (above) are used to normalize for various dilution factors used for individual agents and to allow for comparison of synergy scores across an entire experiment. The inclusion of positive inhibition gating or an Idata multiplier removes noise near the zero effect level, and biases results for synergistic interactions at that occur at high activity levels.
Loewe Volume (Loewe Vol) is used to assess the overall magnitude of the combination interaction in excess of the Loewe additivity model. Loewe Volume is particularly useful when distinguishing synergistic increases in a phenotypic activity (positive Loewe Volume) versus synergistic antagonisms (negative Loewe Volume). […] This model defines additivity as a non-synergistic combination interaction where the combination dose matrix surface should be indistinguishable from either drug crossed with itself.

[8] = tested on: U-2932; experiment: as above
Protocol: as §5, §6, §7, §8, §9, §10
Loewe Volume (Loewe Vol) is used to assess the overall magnitude of the combination interaction in excess of the Loewe additivity model. Loewe Volume is particularly useful when distinguishing synergistic increases in a phenotypic activity (positive Loewe Volume) versus synergistic antagonisms (negative Loewe Volume). […] This model defines additivity as a non-synergistic combination interaction where the combination dose matrix surface should be indistinguishable from either drug crossed with itself. The calculation for Loewe additivity is:

[9] = tested on: TMD8; experiment: as above; settings: TMD8
[10] = combination with CAL-101, Example 2
[11] = combination with Cmpd 1, Example 2
[12] = combination with Compound 1, 72 h

## C[C@H](Nc1ncnc2[nH]cnc12)c1cc2cccc(Cl)c2c(=O)n1-c1ccccc1 [Compound 1, (S)-3-(1-((9H-purin-6-yl)amino)ethyl)-8-chloro-2-phenylisoquinolin-1(2H)-one]
[1]; Compound 1 50 mg/kg QD PO plus dexamethasone 5 mg/kg Q3D IP, after 12 days, versus vehicle, Compound 1 alone or dexamethasone alone, FIG. 8
  tumor volume: lower
[1]; Compound 1 50 mg/kg QD in combination with dexamethasone 5 mg/kg Q3D IP, compared to either monotherapy
  tumor growth inhibition: greater tumor growth inhibition
[1]; co-administration of dexamethasone and Compound 1 in mice
  tolerability of the combination (body weight): tolerable
[2]
  average IC50 for inhibition of the resistant cells versus control cells: higher
[3]; combination with Dexamethasone
  CI50 growth inhibition: T (T=0.5 to <0.7)
  CI50 inhibition: T (T=0.5 to <0.7)
  Synergy Score growth inhibition: A3 (A3=>3)
  Synergy Score inhibition: A2 (A2=1 to <3)
[3]; combination with LEE011
  CI50 growth inhibition: S (S=0.01 to <0.5)
  Synergy Score growth inhibition: A2 (A2=1 to <3)
  Synergy Score inhibition: A1 (A1=0.0001 to <1)
[3]; combination with PCI-32765
  CI50 growth inhibition: S (S=0.01 to <0.5)
  CI50 inhibition: S (S=0.01 to <0.5)
  Synergy Score growth inhibition: A3 (A3=>3)
  Synergy Score inhibition: A2 (A2=1 to <3)
[3]; combination with PD-0332991
  CI50 growth inhibition: S (S=0.01 to <0.5)
  CI50 inhibition: S (S=0.01 to <0.5)
  Synergy Score growth inhibition: A2 (A2=1 to <3)
  Synergy Score inhibition: A2 (A2=1 to <3)
[4]
  cross-resistance of ibrutinib-resistant clones: no cross-resistance

## C[C@@H]1C[C@H]2[C@@H]3CCC4=CC(=O)C=C[C@]4(C)[C@@]3(F)[C@@H](O)C[C@]2(C)[C@@]1(O)C(=O)CO [dexamethasone, (8S,9R,10S,11S,13S,14S,16R,17R)-9-Fluoro-11,17-dihydroxy-17-(2-hydroxyacetyl)-10,13,16-trimethyl-6,7,8,9,10,11,12,13,14,15,16,17-dodecahydro-3H-cyclopenta[a]phenanthren-3-one]
[5]
  CI50 growth inhibition: S (S=0.01 to <0.5)
  CI50 inhibition: U (U=0.7 to <1)
  Synergy Score growth inhibition: A3 (A3=>3)
  Synergy Score inhibition: A2 (A2=1 to <3)
[6]
  CI50 growth inhibition: S (S=0.01 to <0.5)
  CI50 inhibition: S (S=0.01 to <0.5)
  Synergy Score growth inhibition: A3 (A3=>3)
  Synergy Score inhibition: A3 (A3=>3)
[7]
  CI50 growth inhibition: S (S=0.01 to <0.5)
  CI50 inhibition: U (U=0.7 to <1)
  Synergy Score growth inhibition: A3 (A3=>3)
  Synergy Score inhibition: A2 (A2=1 to <3)
[8]; [10]
  CI50 growth inhibition: S (S=0.01 to <0.5)
  CI50 inhibition: S (S=0.01 to <0.5)
  Synergy Score growth inhibition: A2 (A2=1 to <3)
  Synergy Score inhibition: A2 (A2=1 to <3)
[8]; [11]
  CI50 growth inhibition: S (S=0.01 to <0.5)
  CI50 inhibition: S (S=0.01 to <0.5)
  Synergy Score growth inhibition: A3 (A3=>3)
  Synergy Score inhibition: A2 (A2=1 to <3)
[8]; [12]
  CI50 growth inhibition: S (S=0.01 to <0.5)
  CI50 inhibition: S (S=0.01 to <0.5)
  Synergy Score growth inhibition: A3 (A3=>3)
  Synergy Score inhibition: A2 (A2=1 to <3)
[9]; [10]
  CI50 growth inhibition: S (S=0.01 to <0.5)
  CI50 inhibition: S (S=0.01 to <0.5)
  Synergy Score growth inhibition: A3 (A3=>3)
  Synergy Score inhibition: A3 (A3=>3)
[9]; [11]
  CI50 growth inhibition: T (T=0.5 to <0.7)
  CI50 inhibition: S (S=0.01 to <0.5)
  Synergy Score growth inhibition: A3 (A3=>3)
  Synergy Score inhibition: A3 (A3=>3)
[9]; [12]
  CI50 growth inhibition: U (U=0.7 to <1)
  CI50 inhibition: S (S=0.01 to <0.5)
  Synergy Score growth inhibition: A3 (A3=>3)
  Synergy Score inhibition: A3 (A3=>3)
